According to US11098041B2 (Merck Patent GmbH, priority 2014, dated 2021):

Legend:
[1] = target: BTK C481S (His-TEV-hsBTK(328-659)(C481S)) (Homo sapiens (Human), UniProt Q06187, C481S); test: Assay B: microfluidic off-chip mobility shift assay against BTK C481S enzyme; assay type: biochemical; settings: BTK C481S mutant
Method: The mechanics of the assay platform are described by the vendor (PerkinElmer, Hopkinton, Mass.) on their website at the following URL: http://caliperls.com.
5 uL of enzyme buffer and 7.5 uL of ATP/KinKDR peptide substrate mix were added to Matrix (#4315) 384-well, sterile, flat-bottom polypropylene plates (Thermo Fisher Scientific, Hudson, N.H.) with 125 nL of serially diluted compounds prepared in 100% DMSO, and incubated for 90 min. at 25° C. Following the incubation period, reactions were terminated by adding 65 uL quench buffer consisting of 100 mM HEPES, pH 7.5, 0.015% Brij-35 (30%), 0.277% Coating Reagent #3 (PerkinElmer, Mountain View, Calif.), 5% DMSO. Terminated reactions were monitored at −2 PSI, −3000 V/−700 Volts in a LabChip 3000 plate reader from Caliper Life Sciences, a PerkinElmer Company (Hopkinton, Mass.), and the activity was quantified by laser-induced fluorescence measuring the charge/mass difference between substrate and product resulting from peptide phosphorylation. IC50 and efficacy were determined by plotting log [Inhibitor] vs. % Activity in GeneData Screener (Basel, Switzerland).

full-length human BTK = full-length human BTK (Homo sapiens (Human), UniProt Q06187); test: Assay A: microfluidic off-chip mobility shift assay against BTK enzyme; assay type: biochemical
Method: Assay A: Microfluidic Off-Chip Mobility Shift Assay Protocol for Potency Assessment Against BTK Enzyme
The protocol below describes microfluidic, off-chip mobility shift kinase assay to measure inherent potency of compounds against BTK enzyme.
5 uL of enzyme buffer and 7.5 uL of ATP/kinKDR peptide substrate mix were added to Matrix (#115304) 384-well, sterile, polypropylene plates (Thermo Fisher Scientific, Hudson, N.H.) with 125 nL of serially diluted compounds prepared in 100% DMSO, and incubated for 90 min. at 27° C. Following the incubation period, reactions were stopped by adding 60 uL stop buffer consisting of 100 mM HEPES, pH 7.5, 0.015% Brij-35 (30%), 0.277% Coating Reagent #3 (Caliper Life Sciences, Mountain View, Calif.), 5% DMSO. Stopped reactions were monitored at −2 PSI, −3000 V/−700 V in a LabChip 3000 plate reader from Caliper Life Sciences, a PerkinElmer Company (Hopkinton, Mass.), and the activity was measured by off-chip mobility shift assay measuring the charge/mass difference between substrate and product resulting from peptide phosphorilation. IC50 and efficacy were determined by plotting log [Inhibitor] vs. % Activity in GeneData Screener (Basel. Switzerland).

Chain of BTK C481S (His-TEV-hsBTK(328-659)(C481S)) (Q06187 328-659 C481S): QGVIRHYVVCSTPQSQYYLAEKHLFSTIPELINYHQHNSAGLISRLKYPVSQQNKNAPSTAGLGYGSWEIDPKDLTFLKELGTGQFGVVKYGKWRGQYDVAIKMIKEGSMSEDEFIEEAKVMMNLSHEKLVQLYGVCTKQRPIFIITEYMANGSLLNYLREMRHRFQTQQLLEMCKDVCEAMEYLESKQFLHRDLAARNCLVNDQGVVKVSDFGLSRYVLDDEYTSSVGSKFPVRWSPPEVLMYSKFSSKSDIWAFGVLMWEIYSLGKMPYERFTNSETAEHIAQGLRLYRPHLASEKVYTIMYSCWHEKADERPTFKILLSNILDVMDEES
Chain of full-length human BTK (Q06187 whole entry): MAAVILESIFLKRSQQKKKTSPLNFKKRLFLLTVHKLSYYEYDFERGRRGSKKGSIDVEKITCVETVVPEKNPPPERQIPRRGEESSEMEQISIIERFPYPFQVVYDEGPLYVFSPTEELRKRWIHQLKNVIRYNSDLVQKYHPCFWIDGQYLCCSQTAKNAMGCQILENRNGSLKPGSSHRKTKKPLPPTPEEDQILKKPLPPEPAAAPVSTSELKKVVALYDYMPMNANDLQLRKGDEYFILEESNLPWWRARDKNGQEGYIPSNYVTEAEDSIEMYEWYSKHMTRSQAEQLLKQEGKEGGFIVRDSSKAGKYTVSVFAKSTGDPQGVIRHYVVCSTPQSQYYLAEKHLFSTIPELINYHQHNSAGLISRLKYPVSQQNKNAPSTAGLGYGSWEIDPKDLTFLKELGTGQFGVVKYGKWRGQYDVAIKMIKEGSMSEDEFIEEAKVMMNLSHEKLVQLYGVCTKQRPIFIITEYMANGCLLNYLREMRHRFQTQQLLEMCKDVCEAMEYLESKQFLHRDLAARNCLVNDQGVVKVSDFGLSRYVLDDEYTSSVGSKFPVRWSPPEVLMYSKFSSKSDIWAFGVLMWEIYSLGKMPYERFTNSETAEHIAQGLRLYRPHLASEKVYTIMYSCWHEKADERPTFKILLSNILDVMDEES

`Cn1cc(-c2nc3c(-c4cccc(NC(=O)c5noc(C6CC6)n5)c4CO)ccnc3[nH]2)cn1` [Example 44, 5-Cyclopropyl-N-[2-(hydroxymethyl)-3-[2-(1-methyl-1H-pyrazol-4-yl)-3H-imidazo[4,5-b]pyridin-7-yl]phenyl]-1,2,4-oxadiazole-3-carboxamide] was tested, and the IC50 [1] was less than 100 nM and the IC50 (full-length human BTK) was 1000 to 5000 nM.
In the case of `Cn1cc(-c2nc3c(-c4ccc(CNC(=O)CCC(C)(C)C)c(F)c4)ccnc3[nH]2)cn1` [Example 21, 4,4-Dimethyl-pentanoic acid 2-fluoro-4-[2-(1-methyl-1H-pyrazol-4-yl)-3H-imidazo[4,5-b]pyridin-7-yl]-benzylamide], the IC50 [1] is reported as less than 100 nM and the IC50 (full-length human BTK) is reported as less than 100 nM.
Work on `CC(C)(C)c1noc(C(=O)NCc2ccc(-c3ccnc4[nH]c(-c5cccnc5)nc34)cc2F)n1` [Example 149, 3-(tert-butyl)-N-(2-fluoro-4-(2-(pyridin-3-yl)-3H-imidazo[4,5-b]pyridin-7-yl)benzyl)-1,2,4-oxadiazole-5-carboxamide] yielded an IC50 [1] of less than 100 nM and an IC50 (full-length human BTK) of less than 100 nM.
`COc1ncccc1-c1nc2c(-c3ccc(CNC(=O)c4nc(C(C)(C)C)no4)c(F)c3)ccnc2[nH]1` [Example 151, 3-(tert-butyl)-N-(2-fluoro-4-(2-(2-methoxypyridin-3-yl)-3H-imidazo[4,5-b]pyridin-7-yl)benzyl)-1,2,4-oxadiazole-5-carboxamide] showed an IC50 [1] of less than 100 nM and an IC50 (full-length human BTK) of less than 100 nM.
Work on `Cn1cc(-c2nc3c(-c4ccc(CNC(=O)c5cnc(C6CC6)o5)c(F)c4)ccnc3[nH]2)cn1` [Example 18] yielded an IC50 [1] of less than 100 nM and an IC50 (full-length human BTK) of less than 100 nM.
With `COc1cccc(-c2nc3c(-c4cc(F)c(CNC(=O)c5noc(C(C)(C)C)n5)cc4C)ccnc3[nH]2)c1` [Example 78, 5-tert-Butyl-N-([2-fluoro-4-[2-(3-methoxyphenyl)-3H-imidazo[4,5-b]pyridin-7-yl]-5-methylphenyl]methyl)-1,2,4-oxadiazole-3-carboxamide] the IC50 [1] was less than 100 nM and the IC50 (full-length human BTK) was less than 100 nM.
For `Cn1ccc(-c2nc3c(-c4ccc(CNC(=O)c5nnc(C(C)(C)C)o5)c(F)c4)ccnc3[nH]2)cc1=O` [Example 141, 5-tert-Butyl-[1,3,4]oxadiazole-2-carboxylic acid 2-fluoro-4-[2-(1-methyl-2-oxo-1,2-dihydro-pyridin-4-yl)-3H-imidazo[4,5-b]pyridin-7-yl]-benzylamide], the IC50 [1] was less than 100 nM and the IC50 (full-length human BTK) was less than 100 nM.
`CC(C)(C)c1nc(C(=O)NCc2ccc(-c3ccnc4[nH]c(C5CCNC(=O)C5)nc34)cc2F)no1` (stereo not shown) [Example 30, 5-tert-Butyl-[1,2,4]oxadiazole-3-carboxylic acid 2-fluoro-4-[2-(2-oxo-piperidin-4-yl)-3H-imidazo[4,5-b]pyridin-7-yl]-benzylamide] was tested, and the IC50 [1] was 100 to 1000 nM and the IC50 (full-length human BTK) was 1000 to 5000 nM.
`Cn1cc(-c2nc3c(-c4ccc5c(c4)CN(C(=O)c4nc(C(C)(C)C)no4)CC5)ccnc3[nH]2)cn1` [Example 155, (3-tert-Butyl-[1,2,4]oxadiazol-5-yl)-{7-[2-(1-methyl-1H-pyrazol-4-yl)-3H-imidazo[4,5-b]pyridin-7-yl]-3,4-dihydro-1H-isoquinolin-2-yl}-methanone] showed an IC50 [1] greater than 5000 nM and an IC50 (full-length human BTK) greater than 5000 nM.
Work on `Cn1cc(-c2nc3c(-c4ccc(CNC(=O)C5CC(OC(C)(C)C)C5)c(F)c4)ccnc3[nH]2)cn1` (stereo not shown) [Example 60, 3-(tert-Butoxy)-N-([2-fluoro-4-[2-(1-methyl-1H-pyrazol-4-yl)-3H-imidazo[4,5-b]pyridin-7-yl]phenyl]methyl)cyclobutane-1-carboxamide] yielded an IC50 [1] of 100 to 1000 nM and an IC50 (full-length human BTK) of 100 to 1000 nM.
`CC(C)(C)c1nnc(C(=O)NCc2ccc(-c3ccnc4[nH]c(-c5cnn(C6CCOCC6)c5)nc34)cc2F)o1` [Example 126, 5-tert-Butyl-[1,3,4]oxadiazole-2-carboxylic acid 2-fluoro-4-{2-[1-(tetrahydro-pyran-4-yl)-1H-pyrazol-4-yl]-3H-imidazo[4,5-b]pyridin-7-yl}-benzylamide] showed an IC50 [1] of less than 100 nM and an IC50 (full-length human BTK) of less than 100 nM.
`Cn1cc(-c2nc3c(-c4ccc(CO)c(F)c4)ccnc3[nH]2)cn1` [Example 32, {2-Fluoro-4-[2-(1-methyl-1H-pyrazol-4-yl)-3H-imidazo[4,5-b]pyridin-7-yl]-phenyl}-methanol] showed an IC50 [1] of 100 to 1000 nM and an IC50 (full-length human BTK) of 1000 to 5000 nM.
Work on `CC(C)(C)c1noc(C(=O)NCc2ccc(-c3ccnc4[nH]c(C5CCNC(=O)C5)nc34)cc2F)n1` (stereo not shown) [Example 31, 3-tert-Butyl-[1,2,4]oxadiazole-5-carboxylic acid 2-fluoro-4-[2-(2-oxo-piperidin-4-yl)-3H-imidazo[4,5-b]pyridin-7-yl]-benzylamide] yielded an IC50 [1] of 100 to 1000 nM and an IC50 (full-length human BTK) of 1000 to 5000 nM.
`CC(C)(C)c1nnc(C(=O)NCc2ccc(-c3ccnc4[nH]c(-c5cnn(C6COC6)c5)nc34)cc2F)s1` [Example 125, 5-tert-Butyl-[1,3,4]thiadiazole-2-carboxylic acid 2-fluoro-4-[2-(1-oxetan-3-yl-1H-pyrazol-4-yl)-3H-imidazo[4,5-b]pyridin-7-yl]-benzylamide] was tested, and the IC50 [1] was less than 100 nM and the IC50 (full-length human BTK) was less than 100 nM.
With `Cn1cc(-c2nc3c(-c4ccc(Cn5ncc6cc(C(C)(C)C)cc(F)c6c5=O)c(F)c4)ccnc3[nH]2)cn1` [Example 99, 6-tert-Butyl-8-fluoro-2-{2-fluoro-4-[2-(1-methyl-1H-pyrazol-4-yl)-3H-imidazo[4,5-b]pyridin-7-yl]-benzyl}-2H-phthalazin-1-one] the IC50 [1] was less than 100 nM and the IC50 (full-length human BTK) was less than 100 nM.
For `CC(C)(C)c1ccc(C(=O)NCc2ccc(-c3ccnc4[nH]c(C5CC5)nc34)cc2F)cc1` [Example 26, 4-tert-Butyl-N-[4-(2-cyclopropyl-3H-imidazo[4,5-b]pyridin-7-yl)-2-fluoro-benzyl]-benzamide], the IC50 [1] was less than 100 nM and the IC50 (full-length human BTK) was less than 100 nM.
With `C[C@@H]1CN(c2ccc(-c3nc4c(-c5cccc(NC(=O)c6noc(C(C)(C)C)n6)c5CO)ccnc4[nH]3)cc2)C[C@H](C)O1` [Example 47, 5-tert-Butyl-N-[3-(2-[4-[(2R,6S)-2,6-dimethylmorpholin-4-yl]phenyl]-3H-imidazo[4,5-b]pyridin-7-yl)-2-(hydroxymethyl)phenyl]-1,2,4-oxadiazole-3-carboxamide] the IC50 [1] was less than 100 nM and the IC50 (full-length human BTK) was 100 to 1000 nM.
“5-tert-Butyl-[1,3,4]oxadiazole-2-carboxylic acid 2-fluoro-4-{2-[1-(2-morpholin-4-yl-ethyl)-1H-pyrazol-4-yl]-3H-imidazo[4,5-b]pyridin-7-yl}-benzylamide [Example 120]” showed an IC50 [1] of less than 100 nM and an IC50 (full-length human BTK) of less than 100 nM.
Work on `Cn1cc(-c2nc3c(-c4ccc(CN5CCOc6cc(C7CC7)cc(F)c6C5=O)cc4CO)ccnc3[nH]2)cn1` [Example 38, 8-Cyclopropyl-6-fluoro-4-[[3-(hydroxymethyl)0-4-[2-(1-methyl-1H-pyrazol-4-yl)-3H-imidazo[4,5-b]pyridin-7-yl]phenyl]methyl]-2,3,4,5-tetrahydro-1,4-benzoxazepin-5-one] yielded an IC50 [1] of 100 to 1000 nM and an IC50 (full-length human BTK) of 100 to 1000 nM.
With `Cn1cc(-c2nc3c(-c4ccc5c(c4)CN(C(=O)c4nc(C(C)(C)C)no4)C5)ccnc3[nH]2)cn1` [Example 156, (3-tert-Butyl-[1,2,4]oxadiazol-5-yl)-{5-[2-(1-methyl-1H-pyrazol-4-yl)-3H-imidazo[4,5-b]pyridin-7-yl]-1,3-dihydro-isoindol-2-yl}-methanone] the IC50 [1] was 1000 to 5000 nM and the IC50 (full-length human BTK) was 100 to 1000 nM.
`CC(C)(C)c1nc(C(=O)NCc2ccc(-c3ccnc4[nH]c(-c5cnn(CCN6CCOCC6)c5)nc34)cc2F)no1` [Example 119, 5-tert-Butyl-[1,2,4]oxadiazole-3-carboxylic acid 2-fluoro-4-{2-[1-(2-morpholin-4-yl-ethyl)-1H-pyrazol-4-yl]-3H-imidazo[4,5-b]pyridin-7-yl}-benzylamide] showed an IC50 [1] of less than 100 nM and an IC50 (full-length human BTK) of less than 100 nM.
Work on `Cc1c(CNC(=O)c2noc(C(C)(C)C)n2)cccc1-c1ccnc2[nH]c(-c3cnn(C)c3)nc12` [Example 88, 5-tert-Butyl-N-([2-methyl-3-[2-(1-methyl-1H-pyrazol-4-yl)-3H-imidazo[4,5-b]pyridin-7-yl]phenyl]methyl)-1,2,4-oxadiazole-3-carboxamide] yielded an IC50 [1] greater than 5000 nM and an IC50 (full-length human BTK) of 1000 to 5000 nM.
With `Cn1cc(-c2nc3c(-c4ccc(C5CCCN5C(=O)c5ccc(C(C)(C)C)cc5)cc4)ccnc3[nH]2)cn1` (stereo not shown) [Example 121, (4-tert-Butyl-phenyl)-(2-{4-[2-(1-methyl-1H-pyrazol-4-yl)-3H-imidazo[4,5-b]pyridin-7-yl]-phenyl}-pyrrolidin-1-yl)-methanone] the IC50 [1] was less than 100 nM and the IC50 (full-length human BTK) was less than 100 nM.
